From patent publication US20230372433A1, “NANOPARTICLE FOR ANTI-CANCER PEPTIDES AND USES THEREOF” (KING'S COLLEGE LONDON, priority 2020, published 2023)

Key:
[1] = Tryptophan fluorescent binding assay, 3POPC/1POPG vesicles; details: 50 μM peptide, PBS pH 7.4
Method: (§1) In brief, 50 μM peptides were fixed and incubated with titrated POPC vesicles (black) or 3POPC/1POPG vesicles (grey) at concentrations of 0, 12.5, 25, 50, 100, 250, 500, 1000, 2500, and 5000 μM in phosphate buffered saline (1X, pH 7.4). The lipid concentration that causes 50% peptide binding was determined using a tryptophan fluorescent binding assay and the values are shown as lipid per peptide.
(§2) The lipids 1-palmitoyl-2-oleoyl-sn-glycero-3-phosphocholine (POPC), 1-palmitoyl-2-oleoyl-snglycero-3-phospho-(1′-rac-glycerol) (POPG) were purchased from Avanti Polar Lipids and dissolved in chloroform. Large unilamellar vesicles (LUVs) were produced by extrusion through 100 nm pore filter using an extruder and filters purchased from Avanti Polar Lipids.
(§3) Peptides (50 μM) and POPC/POPG LUVs (600 μM) were prepared in 10 mM phosphate buffer (pH 7.0). The solutions were incubated and measured after 60 minutes. Excitation was fixed at 280 nm (slit 9 nm) and emission was collected from 300 to 450 nm (slit 9 nm). The spectra were recorded using a Synergy H1 Hybrid Multi-Mode Reader (FIG. 3A) and Cytation™ 5 Cell Imaging Multi-Mode Reader (FIG. 2) from BioTek and were averaged over 3 scans.
(§4) Table 3 illustrates the lipid concentration-induced 50% peptide binding onto a liposome. 50 μM peptide was fixed and incubated with titrated lipid (POPC vesicles or 3POPC/1POPG vesicles) at concentrations of 0, 12.5, 25, 50, 100, 250, 500, 1000, 2500, and 5000 μM in phosphate buffered saline (1X, pH 7.4). The lipid concentration that causes 50% peptide binding was determined using tryptophan fluorescent binding assay and the values are shown as lipid per peptide. IN-terminus is free, C-terminus: —W—NH2.

[2] = tested on: HMLER-shEcad (human breast cancer stem cell); assay: MTT cytotoxicity assay, HMLER-shEcad; format: cell-based; details: 72 hr, MTT; read-out: IC50 HMLER-shEcad
[3] = ANTS/DPX liposome leakage assay, 3POPC/1POPG vesicles; format: biochemical; details: 0.5 mM vesicles
Method: (§5) In brief, 0.5 mM POPC vesicles (grey) or POPC:POPG vesicles (ratio 3:1, black) were incubated with peptide concentrations of 0, 0.02, 0.04, 0.08, 0.16, 0.32, 0.64, 1.25, 2.5, 5, 10, and 20 μM in each A) hydrochloric acid-adjusted phosphate buffered saline (1X, pH 4.8) and B) phosphate buffered saline (1X, pH 7.4).
as §2
(§6) 5 mM ANTS (8-aminonaphthalene-1,3,6-trisulfonic acid, disodium salt) and 12.5 mM DPX (p-xylene-bis-pyridinium bromide) were entrapped in 0.1 μm diameter extruded vesicles with lipids. Gel filtration chromatography using a Sephadex G-100 (GE Healthcare Life Sciences Inc) was used to remove external free ANTS/DPX from LUVs with entrapped contents. LUVs were diluted to 0.5 mM and used to measure the leakage activity by addition of aliquots of peptides. Leakage was measured after 3 h incubation. 10% Triton was used as the positive control to measure the maximum leakage of the vesicle. Fluorescence emission spectra were recorded using excitation and emission wavelength of 350 nm and 510 nm for ANTS/DPX using a BioTek Synergy H1 Hybrid Multi-Mode Reader.
(§7) Table 4 illustrates peptide concentration-induced 50 ANTS/DPX liposome leakage. 0.5 mM POPC and 3POPC/1POPG vesicles were fixed and incubated with titrated peptide concentration (0, 0.02, 0.04, 0.08, 0.16, 0.32, 0.64, 1.25, 2.5, 5, 10, and 20 μM) each in phosphate buffered saline (1X, pH 7.4) and hydrochloric acid-adjusted phosphate buffered saline (1X, pH 4.8). The values are shown as lipid per peptide. IN-terminus is free, C-terminus: —W—NH2.

[4] = ANTS/DPX liposome leakage assay, POPC vesicles; format: biochemical; details: 0.5 mM vesicles
Method: as §5, §2, §6, §7

[5] = tested on: HMLER (human breast cancer bulk cell); assay: MTT cytotoxicity assay, HMLER; format: cell-based; details: 72 hr, MTT; read-out: IC50 HMLER
[6] = Tryptophan fluorescent binding assay, POPC vesicles; details: 50 μM peptide, PBS pH 7.4
Method: as §1, §2, §3, §4

[7] = tested on: HEK293T (human embryonic kidney cell); assay: MTT cytotoxicity assay, HEK293T; format: cell-based; details: 72 hr, MTT; read-out: IC50 HEK293T
[8] = tested on: MCF-10A (human breast epithelial cell); assay: cells; details: read-out: IC50 MCF-10A; 72 hr, MTT
Source text: HMLER (human mammary endothelial cancer cells), HMLER-shEcad (human mammary endothelial cancer stem cells), and MCF-10A (healthy human mammary endothelial) cells were maintained in Mammary Epithelial Cell Growth Medium (MEGM) with supplements and growth factors: bovine pituitary extract (BPE), hydrocortisone, human epidermal growth factor (hEGF), insulin, and gentamicin/amphotericin-B. HEK293T (human embryonic kidney cell), and U2OS (homo sapiens bone osteosarcoma) cells were maintained in Dulbecco's Modified Eagle's Medium (DMEM) with a final concentration of 10% fetal bovine serum. The cells were grown in T75 flask at 310 K in a humidified atmosphere containing 5% CO2.
The colourimetric MTT (3-(4,5-dimethylthiazol-2-yl)-2,5-diphenyltetrazolium bromide) assay was used to determine the toxicity of the anti-cancer peptides and conventional anti-cancer drugs. 5×10^3 cells were seeded in each well of a 96-well microplate. The cells were incubated overnight. Elevated concentrations of the compounds (0, 0.1, 0.2, 0.4, 0.8, 1.6, 3.1, 6.3, 12.5, 25, 50 and 100 μM) were added and incubated for 72 hr with a total volume 200 μL. The stock solutions of the compounds were prepared as 5 mM solutions in DMSO and diluted using media or in pure water. The final concentration of DMSO in each well was either 0.5% or 0% and this amount was present in the untreated control. After 72 hr, 20 μL of a 4 mg/mL solution of MTT in PBS was added to each well, and the plate was incubated for an additional 4 hr. The MEGM/MTT mixture was aspirated and 100 μL of DMSO was added to dissolve the resulting purple formazan crystals. The absorbance of the solutions in each well was read at 550 nm wavelength. Absorbance values were normalized to either DMSO-containing or non DMSO-containing control wells and plotted as concentration of test compound versus % cell viability. ICso values were interpolated from the resulting dose dependent curves.
The peptides were screened against several different human cell lines and their cytotoxicity were determined. Cell lines utilised include MCF-10A (human breast epithelial cell), HMLER (human breast cancer bulk cell), HMLER-shEcad (human breast cancer stem cell), HEK293T (human embryonic kidney cell), and U2OS (human bone osteosarcoma).

[9] = tested on: U2OS (human bone osteosarcoma); assay: MTT cytotoxicity assay, U2OS; format: cell-based; details: 72 hr

Sequence	Lipid Concentration-induced 50% Peptide Binding (L/P) 3POPC/1POPG Vesicle [1]	IC50 [2]	Peptide Concentration-induced 50% ANTS/DPX leakage at pH 4.8 (L/P) 3POPC/1POPG Vesicle [3]	Peptide Concentration-induced 50% ANTS/DPX leakage at pH 7.4 (L/P) 3POPC/1POPG Vesicle [3]	Peptide Concentration-induced 50% ANTS/DPX leakage at pH 4.8 (L/P) POPC Vesicle [4]	Peptide Concentration-induced 50% ANTS/DPX leakage at pH 7.4 (L/P) POPC Vesicle [4]	IC50 [5]	Lipid Concentration-induced 50% Peptide Binding (L/P) POPC Vesicle [6]	IC50 [7]	IC50 [8]	IC50 [9]
GLLELLHLLLHAAG [EHH]	0.69 L/P	16.1 ± 3.18 µM	80 L/P	981 L/P	386 L/P	1043 L/P	25.4 ± 2.76 µM	0.94 L/P	5.9 ± 0.14 µM		
GLLHLLELLLHAAG [HEH]	3.50 L/P	11 ± 1.06 µM	24 L/P	505 L/P	173 L/P	995 L/P	28.6 ± 10.8 µM	0.88 L/P	8.8 ± 1.7 µM		
GLLHLLELLLKAAG [HEK]	0.46 L/P	3.45 ± 2.19 µM	411 L/P	386 L/P	97 L/P	755 L/P	2.35 ± 1.06 µM	0.44 L/P	6.95 ± 1.63 µM	29.8 ± 7.35 µM	
GLLHLLHLLLEAAG [HHE]	0.75 L/P	10.8 ± 0.78 µM	113 L/P	411 L/P	143 L/P	842 L/P	16.7 ± 2.26 µM	1.00 L/P	18.4 ± 3.75 µM		53.2 ± 5.3 µM
GLLHLLHLLLHAAG [HHH]	0.82 L/P	9.5 ± 0.99 µM	50 L/P	469 L/P	173 L/P	1133 L/P	21.1 ± 6.93 µM	0.46 L/P	30.6 ± 4.81 µM	79 ± 11.3 µM	
